# Publication PMC9181926, “Synthesis and Antiproliferative Activity of Novel Dehydroabietic Acid-Chalcone Hybrids” (Molecules, 2022)
# Where “and” joins values, the source holds several entries; their conditions need not be identical. Equal values may be shown once.
# Legend:
# Assay type in all cases: cell-based, human
# MCF-7 cells = test: Antiproliferation assay (cell counting, 48 h) in MCF-7 breast cancer cells; details: for Selectivity Index for MCF-7: FB IC50 relative to MCF-7 IC50; for IC50: MCF-7 cells, 48 h incubation, cell counting
# Description: (§1) Regarding the different characteristics of the used breast cancer cell lines, we can notice that MDA-MB-231 and Hs578T are triple negative.
# (§2) Primary skin normal fibroblasts were kindly provided by Prof. Emer.
# [1] = test system: normal primary fibroblasts (FB); test: cells; details: for IC50: normal primary human fibroblasts, 48 h incubation, cell counting
# Description: as §2
# MDA-MB-231 cells = test: Antiproliferation assay (cell counting, 48 h) in MDA-MB-231 breast cancer cells; details: for Selectivity Index for MDA-MB-231: FB IC50 relative to MDA-MB-231 IC50; for IC50: MDA-MB-231 cells, 48 h incubation, cell counting
# Description: as §1, §2
# Hs578T cells = test: Antiproliferation assay (cell counting, 48 h) in Hs578T breast cancer cells; details: for Selectivity Index for Hs578T: FB IC50 relative to Hs578T IC50; for IC50: Hs578T cells, 48 h incubation, cell counting
# Description: as §1, §2
Compound,Selectivity Index for MCF-7 (MCF-7 cells),"IC50 (MCF-7 cells; Homo sapiens, MCF7)",IC50 ([1]; Fibroblast),Selectivity Index for MDA-MB-231 (MDA-MB-231 cells),IC50 (MDA-MB-231 cells; Homo sapiens),Selectivity Index for Hs578T (Hs578T cells),"IC50 (Hs578T cells; Homo sapiens, Hs-578T)",times less toxic than 5-FU [1],IC50 (MCF-7 cells),IC50 (MDA-MB-231 cells),IC50 (Hs578T cells),IC50 [1]
"O=c1[nH]cc(F)c(=O)[nH]1 [Compound 5-FU, 5-fluorouracil, reference compound]",1.76,5.37 ± 1.16 µM,9.43 ± 0.8 µM,0.49,19.2 ± 0.39 µM,1.28,7.38 ± 2.49 µM,–,–,–,–,–
COC(=O)[C@]1(C)CCC[C@]2(C)c3cc(O)c(C(C)=O)cc3CCC12 (stereo partly drawn) [Compound 28],–,207 ± 7.28 µM,–,–,115 ± 40.1 µM,–,136 ± 2.47 µM,–,–,–,–,–
"COC(=O)[C@]1(C)CCC[C@]2(C)c3cc(OC)c(C(=O)/C=C/c4cccnc4)cc3CCC12 (stereo partly drawn) [Compound 32, (1R,4aS)-methyl 6-methoxy-1,4a-dimethyl-7-((E)-3-(pyridin-3-yl)acryloyl)-1,2,3,4,4a, 9,10,10a-octahydrophenanthrene-1-carboxylate]",–,> 75 µM,–,–,> 75 µM,–,> 75 µM,–,–,–,–,–
"COC(=O)[C@]1(C)CCC[C@]2(C)c3cc(O)c(C(=O)/C=C/c4ccncc4)cc3CCC12 (stereo partly drawn) [Compound 35, (1R,4aS)-methyl 6-hydroxy-1,4a-dimethyl-7-((E)-3-(pyridin-4-yl)acryloyl)-1,2,3,4,4a, 9,10,10a-octahydrophenanthrene-1-carboxylate]",3.42,9.9 ± 0.05 µM,33.8 ± 6.63 µM,0.91,37.1 ± 1.82 µM,3.89,8.69 ± 0.55 µM,–,–,–,–,–
"COC(=O)[C@]1(C)CCC[C@]2(C)c3cc(O)c(C(=O)/C=C/c4ccc5ccccc5n4)cc3CCC12 (stereo partly drawn) [Compound 38, (1R,4aS)-methyl 6-hydroxy-1,4a-dimethyl-7-((E)-3-(quinolin-2-yl)acryloyl)-1,2,3,4,4a, 9,10,10a-octahydrophenanthrene-1-carboxylate]",22.7 and 22.75,7.06 ± 1.71 µM,161 ± 13.1 µM,2.20,73 ± 2.31 µM,–,> 75 µM,12.9 times,–,–,–,–
"COC(=O)[C@]1(C)CCC[C@]2(C)c3cc(O)c(C(=O)/C=C/c4cnc5ccccc5c4)cc3CCC12 (stereo partly drawn) [Compound 39, (1R,4aS)-methyl 6-hydroxy-1,4a-dimethyl-7-((E)-3-(quinolin-3-yl)acryloyl)-1,2,3,4,4a, 9,10,10a-octahydrophenanthrene-1-carboxylate]",2.86,11.5 ± 1.02 µM,32.9 ± 2.27 µM,–,> 75 µM,2.09,15.7 ± 2.74 µM,–,–,–,–,–
"COC(=O)[C@]1(C)CCC[C@]2(C)c3cc(O)c(C(=O)/C=C/c4ccnc5ccccc45)cc3CCC12 (stereo partly drawn) [Compound 40, (1R,4aS)-methyl 6-hydroxy-1,4a-dimethyl-7-((E)-3-(quinolin-4-yl)acryloyl)-1,2,3,4,4a, 9,10,10a-octahydrophenanthrene-1-carboxylate]",–,> 75 µM,92.1 ± 5.47 µM,–,> 75 µM,–,> 75 µM,–,–,–,–,–
"COC(=O)[C@]1(C)CCC[C@]2(C)c3cc(O)c(C(=O)/C=C/c4ccsc4)cc3CCC12 (stereo partly drawn) [Compound 44, (1R,4aS)-methyl 6-hydroxy-1,4a-dimethyl-7-((E)-3-(thiophen-3-yl)acryloyl)-1,2,3,4,4a,9,10,10a-octahydrophenanthrene-1-carboxylate]",12.76,3.45 ± 0.36 µM,44 ± 1.84 µM,1.75,25.2 ± 0.84 µM,2.05,21.5 ± 1.2 µM,–,–,–,–,–
"COC(=O)[C@]1(C)CCC[C@]2(C)c3cc(O)c(C(=O)/C=C/c4ccc(Br)s4)cc3CCC12 (stereo partly drawn) [Compound 45, (1R,4aS)-methyl 7-((E)-3-(5-bromothiophen-2-yl)acryloyl)-6-hydroxy-1,4a-dimethyl-1,2,3,4,4a,9,10,10a-octahydrophenanthrene-1-carboxylate]",–,29.9 ± 5.26 µM,–,–,> 75 µM,–,> 75 µM,–,–,–,–,–
"COC(=O)[C@]1(C)CCC[C@]2(C)c3cc(O)c(C(=O)/C=C/c4c[nH]c5ccccc45)cc3CCC12 (stereo partly drawn) [Compound 46, (1R,4aS)-methyl 7-((E)-3-(1H-indol-3-yl)acryloyl)-6-hydroxy-1,4a-dimethyl-1,2,3,4,4a,9,10,10a-octahydrophenanthrene-1-carboxylate]",–,> 75 µM,–,–,> 75 µM,–,> 75 µM,–,–,–,–,–
"COC(=O)[C@]1(C)CCC[C@]2(C)c3cc(O)c(C(=O)/C=C/c4csc5ccccc45)cc3CCC12 (stereo partly drawn) [Compound 47, (1R,4aS)-methyl 7-((E)-3-(benzo[b]thiophen-3-yl)acryloyl)-6-hydroxy-1,4a-dimethyl-1,2,3,4,4a,9,10,10a-octahydrophenanthrene-1-carboxylate]",–,12.5 ± 8.43 µM,–,–,40.4 ± 0.67 µM,–,> 75 µM,–,–,–,–,–
"COC(=O)[C@]1(C)CCC[C@]2(C)c3cc(O)c(/C=C/C(=O)c4ccccn4)cc3CCC12 (stereo partly drawn) [Compound 49, (1R,4aS)-methyl 6-hydroxy-1,4a-dimethyl-7-((E)-3-oxo-3-(pyridin-2-yl)prop-1-en-1-yl)-1,2,3,4,4a,9,10,10a-octahydrophenanthrene-1-carboxylate]",0.52,45.9 ± 1.52 µM,23.8 ± 1.07 µM,1.06,22.4 ± 0.81 µM,1.39,17.1 ± 2.13 µM,–,–,–,–,–
"COC(=O)[C@]1(C)CCC[C@]2(C)c3cc(O)c(/C=C/C(=O)c4cnccn4)cc3CCC12 (stereo partly drawn) [Compound 51, (1R,4aS)-methyl 6-hydroxy-1,4a-dimethyl-7-((E)-3-oxo-3-(pyrazin-2-yl)prop-1-en-1-yl)-1,2,3,4,4a,9,10,10a-octahydrophenanthrene-1-carboxylate]",–,> 75 µM,20.5 ± 2.46 µM,1.14,18 ± 2.78 µM,0.88,23.11 ± 0.04 µM,–,–,–,–,–
"COC(=O)[C@]1(C)CCC[C@]2(C)c3cc(O)c(/C=C/C(=O)c4ccc(Br)s4)cc3CCC12 (stereo partly drawn) [Compound 53, (1R,4aS)-methyl 7-((E)-3-(5-bromothiophen-2-yl)-3-oxoprop-1-en-1-yl)-6-hydroxy-1,4a-dimthyl-1,2,3,4,4a,9,10,10a-octahydrophenanthrene-1-carboxylate]",–,41.4 ± 1.74 µM,–,–,17.1 ± 0.41 µM,–,28.4 ± 1.97 µM,–,–,–,–,–
"(1R,4aS)-6-hydroxy-1,4a-dimethyl-7-((E)-3-(naphthalen-2-yl)acryloyl)-1,2,3,4,4a,9,10, 10a-octahydrophenanthrene-1-carboxylic acid [Compound 37]",–,–,–,–,–,–,–,–,11.4 ± 1.55 µM,> 75 µM,> 75 µM,–
"(1R,4aS)-methyl 6-hydroxy-1,4a-dimethyl-7-((E)-3-(2,4,5-trifluorophenyl)acryloyl)-1,2,3,4,4a,9,10,10a-octahydrophenanthrene-1-carboxylate [Compound 36]",–,–,–,–,–,–,–,–,> 75 µM,> 75 µM,> 75 µM,–
"(1R,4aS)-methyl 6-hydroxy-1,4a-dimethyl-7-((E)-3-oxo-3-(pyridin-3-yl)prop-1-en-1-yl)-1,2,3,4,4a,9,10,10a-octahydrophenanthrene-1-carboxylate [Compound 50]",–,–,–,–,–,–,–,–,> 75 µM,> 75 µM,> 75 µM,192 ± 51.4 µM
"(1R,4aS)-methyl 7-((E)-3-(1H-pyrrol-3-yl)acryloyl)-6-hydroxy-1,4a-dimethyl-1,2,3,4, 4a,9,10,10a-octahydrophenanthrene-1-carboxylate [Compound 43]",–,–,–,–,–,–,–,–,4.29 ± 0.29 µM,29.2 ± 3.26 µM,16.6 ± 2.83 µM,33 ± 6.1 µM
"(1R,4aS)-methyl 7-((E)-3-(2-chloroquinolin-4-yl)acryloyl)-6-hydroxy-1,4a-dimethyl-1,2,3,4, 4a,9,10,10a-octahydrophenanthrene-1-carboxylate [Compound 41]",–,–,–,–,–,–,–,–,3.99 ± 0.15 µM,7.12 ± 0.2 µM,10.3 ± 0.25 µM,7.96 ± 0.1 µM
"(1R,4aS)-methyl 7-((E)-3-(2-hydroxyphenyl)-3-oxoprop-1-en-1-yl)-6-methoxy-1,4a-dimethyl-1,2,3,4,4a,9,10,10a-octahydrophenanthrene-1-carboxylate [Compound 31]",–,–,–,–,–,–,–,–,23.9 ± 4.47 µM,> 75 µM,> 75 µM,–
"(1R,4aS)-methyl 7-((E)-3-(benzofuran-2-yl)acryloyl)-6-hydroxy-1,4a-dimethyl-1,2,3, 4,4a,9,10, 10a-octahydrophenanthrene-1-carboxylate [Compound 52]",–,–,–,–,–,–,–,–,> 75 µM,> 75 µM,60.2 ± 6.94 µM,–
"(E)-1-((4bS,8R)-3-hydroxy-8-methoxy-4b,8-dimethyl-4b,5,6,7,8,8a,9,10-octahydrophenanthren-2-yl)-3-(pyridin-2-yl)prop-2-en-1-one [Compound 34]",–,–,–,–,–,–,–,–,21.4 ± 0.6 µM,> 75 µM,28.1 ± 7.76 µM,–
"(E)-3-(furan-2-yl)-1-((4bS,8R)-3-hydroxy-8-methoxy-4b,8-dimethyl-4b,5,6,7,8,8a,9,10-octahydrophenanthren-2-yl)prop-2-en-1-one [Compound 42]",–,–,–,–,–,–,–,–,37 ± 6.89 µM,> 75 µM,43.3 ± 4.32 µM,–
"Tert-butyl 4-(4-((E)-3-((4bS,8R)-3-methoxy-8-(methoxycarbonyl)-4b,8-dimethyl-4b,5, 6,7,8,8a,9,10-octahydrophenanthren-2-yl)acryloyl)phenyl)piperazine-1-carboxylate [Compound 48]",–,–,–,–,–,–,–,–,25.62 ± 0.09 µM,> 75 µM,23.2 ± 2.5 µM,–
